Results from patent US12187728B2 (Raze Therapeutics, Inc., priority 2015, dated 2025).

biological target: T1, Human MTHFD2 (Homo sapiens, UniProt P13995); test: MTHFD2 Activity Assay (dehydrogenase activity, diaphorase/resazurin coupled fluorescence); format: biochemical; conditions: inhibitory activity (IC50 and/or binding constant); 0.2 nM MTHFD2, 11 concentrations
T1 construct: residues 36-350 in Uniport ID P13995; His6 (N); made in house; host or cells: E. coli
T1 sequence (P13995 36-350): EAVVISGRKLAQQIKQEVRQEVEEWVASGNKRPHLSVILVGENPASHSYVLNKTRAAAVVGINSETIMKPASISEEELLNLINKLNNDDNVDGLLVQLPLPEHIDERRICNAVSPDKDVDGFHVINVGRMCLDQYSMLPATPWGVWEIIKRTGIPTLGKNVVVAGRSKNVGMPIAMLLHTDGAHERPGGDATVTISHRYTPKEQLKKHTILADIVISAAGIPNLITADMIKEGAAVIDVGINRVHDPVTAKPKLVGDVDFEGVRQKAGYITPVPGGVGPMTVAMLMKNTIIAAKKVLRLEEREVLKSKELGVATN
Summary of the method: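 Steps: compound + 0.2 nM enzyme, 15 min, pH 8.0 Hepes buffer; add 70 μM CH2-THF, 1 mM NAD+, 100 μM resazurin, diaphorase; 30 min; quench with EDTA; read fluorescence. Data normalized to DMSO (100%) and no-enzyme (0%) wells.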

| SMILES | IC50 [nM] |
| --- | --- |
| Cn1c(NC[C@H](O)CO)nc2c1c(=O)n(Cc1ccc(Cl)c(Cl)c1)c(=O)n2C [Example 14, 1-[(3,4-dichlorophenyl)methyl]-8-{[(2S)-2,3-dihydroxypropyl]amino}-3,7-dimethyl-2,3,6,7-tetrahydro-1H-purine-2,6-dione] | 10 to 1000 |
| Cn1c(NC[C@@H](O)CO)nc2c1c(=O)n(Cc1ccc(Cl)cc1)c(=O)n2C [Example 15, 1-[(4-chlorophenyl)methyl]-8-{[(2R)-2,3-dihydroxypropyl]amino}-3,7-dimethyl-2,3,6,7-tetrahydro-1H-purine-2,6-dione] | 5000 to 10000 |
| Cn1c(NC[C@H](O)CO)nc2c1c(=O)n(Cc1ccc(Cl)cc1)c(=O)n2C [Example 16, 1-[(4-chlorophenyl)methyl]-8-{[(2S)-2,3-dihydroxypropyl]amino}-3,7-dimethyl-2,3,6,7-tetrahydro-1H-purine-2,6-dione] | > 10000 |
| C[C@@H](O)CNc1nc2c(c(=O)n(Cc3ccc(Cl)cc3)c(=O)n2C)n1C [Example 17, 1-[(4-chlorophenyl)methyl]-8-{[(2R)-2-hydroxypropyl]amino}-3,7-dimethyl-2,3,6,7-tetrahydro-1H-purine-2,6-dione] | 5000 to 10000 |
| C[C@H](O)CNc1nc2c(c(=O)n(Cc3ccc(Cl)cc3)c(=O)n2C)n1C [Example 18, 1-[(4-chlorophenyl)methyl]-8-{[(2S)-2-hydroxypropyl]amino}-3,7-dimethyl-2,3,6,7-tetrahydro-1H-purine-2,6-dione] | 5000 to 10000 |
| CNc1nc2c(c(=O)n(Cc3ccc(Cl)c(Cl)c3)c(=O)n2C)n1C [Example 21, 1-[(3,4-dichlorophenyl)methyl]-3,7-dimethyl-8-(methylamino)-2,3,6,7-tetrahydro-1H-purine-2,6-dione] | 1000 to 5000 |
| CC(=O)NCCNc1nc2c(c(=O)n(Cc3ccc(Cl)c(Cl)c3)c(=O)n2C)n1C [Example 22, N-[2-({1-[(3,4-dichlorophenyl)methyl]-3,7-dimethyl-2,6-dioxo-2,3,6,7-tetrahydro-1H-purin-8-yl}amino)ethyl]acetamide] | 10 to 1000 |
| Cn1c(NCCCO)nc2c1c(=O)n(Cc1ccc(Cl)c(F)c1)c(=O)n2C [Example 23, 1-[(4-chloro-3-fluorophenyl)methyl]-8-[(3-hydroxypropyl)amino]-3,7-dimethyl-2,3,6,7-tetrahydro-1H-purine-2,6-dione] | 1000 to 5000 |
| C[C@@H](O)CNc1nc2c(c(=O)n(Cc3ccc(Cl)c(F)c3)c(=O)n2C)n1C [Example 24, 1-[(4-chloro-3-fluorophenyl)methyl]-8-{[(2R)-2-hydroxypropyl]amino}-3,7-dimethyl-2,3,6,7-tetrahydro-1H-purine-2,6-dione] | 5000 to 10000 |
| C[C@H](O)CNc1nc2c(c(=O)n(Cc3ccc(Cl)c(F)c3)c(=O)n2C)n1C [Example 25, 1-[(4-chloro-3-fluorophenyl)methyl]-8-{[(2S)-2-hydroxypropyl]amino}-3,7-dimethyl-2,3,6,7-tetrahydro-1H-purine-2,6-dione] | 1000 to 5000 |
| C[C@H](CCO)Nc1nc2c(c(=O)n(Cc3ccc(Cl)cc3)c(=O)n2C)n1C [Example 26, 1-[(4-chlorophenyl)methyl]-8-{[(2R)-4-hydroxybutan-2-yl]amino}-3,7-dimethyl-2,3,6,7-tetrahydro-1H-purine-2,6-dione] | 1000 to 5000 |
| C[C@H](CCO)Nc1nc2c(c(=O)n(Cc3ccc(Cl)c(Cl)c3)c(=O)n2C)n1C [Example 27, 1-[(3,4-dichlorophenyl)methyl]-8-{[(2R)-4-hydroxybutan-2-yl]amino}-3,7-dimethyl-2,3,6,7-tetrahydro-1H-purine-2,6-dione] | 10 to 1000 |
| Cn1c(NCCCCO)nc2c1c(=O)n(Cc1ccc(Cl)c(Cl)c1)c(=O)n2C [Example 28, 1-[(3,4-dichlorophenyl)methyl]-8-[(4-hydroxybutyl)amino]-3,7-dimethyl-2,3,6,7-tetrahydro-1H-purine-2,6-dione] | 10 to 1000 |
| Cn1c(NCCCO)nc2c1c(=O)n(Cc1ccc(F)c(F)c1)c(=O)n2C [Example 29, 1-[(3,4-difluorophenyl)methyl]-8-[(3-hydroxypropyl)amino]-3,7-dimethyl-2,3,6,7-tetrahydro-1H-purine-2,6-dione] | > 10000 |
| C[C@H](O)CNc1nc2c(c(=O)n(Cc3ccc(F)c(F)c3)c(=O)n2C)n1C [Example 30, 1-[(3,4-difluorophenyl)methyl]-8-{[(2S)-2-hydroxypropyl]amino}-3,7-dimethyl-2,3,6,7-tetrahydro-1H-purine-2,6-dione] | > 10000 |
| C[C@@H](CCO)Nc1nc2c(c(=O)n(Cc3ccc(Cl)cc3)c(=O)n2C)n1C [Example 31, 1-[(4-chlorophenyl)methyl]-8-{[(2S)-4-hydroxybutan-2-yl]amino}-3,7-dimethyl-2,3,6,7-tetrahydro-1H-purine-2,6-dione] | 1000 to 5000 |

| SMILES | IC50 [nM] |
| --- | --- |
| C[C@@H](CCO)Nc1nc2c(c(=O)n(Cc3ccc(Cl)c(Cl)c3)c(=O)n2C)n1C [Example 32, 1-[(3,4-dichlorophenyl)methyl]-8-{[(2S)-4-hydroxybutan-2-yl]amino}-3,7-dimethyl-2,3,6,7-tetrahydro-1H-purine-2,6-dione] | 10 to 1000 |
| Cn1c(NC2CCCC(O)C2)nc2c1c(=O)n(Cc1ccc(Cl)c(Cl)c1)c(=O)n2C (stereo not shown) [Example 33, 1-[(3,4-dichlorophenyl)methyl]-8-[(3-hydroxycyclohexyl)amino]-3,7-dimethyl-2,3,6,7-tetrahydro-1H-purine-2,6-dione] | 10 to 1000 |
| COc1ccc(Cn2c(=O)c3c(nc(NC[C@H](C)O)n3C)n(C)c2=O)cc1 [Example 34, 8-{[(2S)-2-hydroxypropyl]amino}-1-[(4-methoxyphenyl)methyl]-3,7-dimethyl-2,3,6,7-tetrahydro-1H-purine-2,6-dione] | > 10000 |
| Cn1c(NC2CCNCC2)nc2c1c(=O)n(Cc1ccc(Cl)c(Cl)c1)c(=O)n2C [Example 35, 1-[(3,4-dichlorophenyl)methyl]-3,7-dimethyl-8-[(piperidin-4-yl)amino]-2,3,6,7-tetrahydro-1H-purine-2,6-dione] | 1000 to 5000 |
| C[C@H](O)CNc1nc2c(c(=O)n(Cc3ccc(C(F)(F)F)cc3)c(=O)n2C)n1C [Example 36, 8-{[(2S)-2-hydroxypropyl]amino}-3,7-dimethyl-1-{[4-(trifluoromethyl)phenyl]methyl}-2,3,6,7-tetrahydro-1H-purine-2,6-dione] | 5000 to 10000 |
| Cn1c(NCCC(=O)O)nc2c1c(=O)n(Cc1ccc(Cl)c(Cl)c1)c(=O)n2C [Example 37, 3-({1-[(3,4-dichlorophenyl)methyl]-3,7-dimethyl-2,6-dioxo-2,3,6,7-tetrahydro-1H-purin-8-yl}amino)propanoic acid] | 10 to 1000 |
| Cn1c(N[C@H]2CC[C@H](N)CC2)nc2c1c(=O)n(Cc1ccc(Cl)c(Cl)c1)c(=O)n2C [Example 38, (±)-1-[(3,4-dichlorophenyl)methyl]-3,7-dimethyl-8-{[(trans)-4-aminocyclohexyl]amino}-2,3,6,7-tetrahydro-1H-purine-2,6-dione] | 1000 to 5000 |
| Cn1c(N[C@H]2CC[C@@H](N)CC2)nc2c1c(=O)n(Cc1ccc(Cl)c(Cl)c1)c(=O)n2C [Example 39, (±)-1-[(3,4-dichlorophenyl)methyl]-3,7-dimethyl-8-{[(cis)-4-aminocyclohexyl]amino}-2,3,6,7-tetrahydro-1H-purine-2,6-dione] | 1000 to 5000 |
| CN(C)CCNc1nc2c(c(=O)n(Cc3ccc(Cl)c(Cl)c3)c(=O)n2C)n1C [Example 40, 1-[(3,4-dichlorophenyl)methyl]-8-{[2-(dimethylamino)ethyl]amino}-3,7-dimethyl-2,3,6,7-tetrahydro-1H-purine-2,6-dione] | 1000 to 5000 |
| Cn1c(NCc2cn[nH]c2)nc2c1c(=O)n(Cc1ccc(Cl)c(Cl)c1)c(=O)n2C [Example 42, 1-[(3,4-dichlorophenyl)methyl]-3,7-dimethyl-8-[(1H-pyrazol-4-ylmethyl)amino]-2,3,6,7-tetrahydro-1H-purine-2,6-dione] | 1000 to 5000 |
| Cn1c(NCCC(C)(C)O)nc2c1c(=O)n(Cc1ccc(Cl)c(Cl)c1)c(=O)n2C [Example 45, 1-[(3,4-dichlorophenyl)methyl]-8-[(3-hydroxy-3-methylbutyl)amino]-3,7-dimethyl-2,3,6,7-tetrahydro-1H-purine-2,6-dione] | 10 to 1000 |
| Cn1c(N[C@H]2CCCOC2)nc2c1c(=O)n(Cc1ccc(Cl)c(Cl)c1)c(=O)n2C [Example 46, 1-[(3,4-dichlorophenyl)methyl]-3,7-dimethyl-8-{[(3S)-oxan-3-yl]amino}-2,3,6,7-tetrahydro-1H-purine-2,6-dione] | 10 to 1000 |
| Cn1c(N[C@@H]2CCCOC2)nc2c1c(=O)n(Cc1ccc(Cl)c(Cl)c1)c(=O)n2C [Example 47, 1-[(3,4-dichlorophenyl)methyl]-3,7-dimethyl-8-{[(3R)-oxan-3-yl]amino}-2,3,6,7-tetrahydro-1H-purine-2,6-dione] | 10 to 1000 |
| Cn1c(NC2CCOCC2)nc2c1c(=O)n(Cc1ccc(Cl)c(Cl)c1)c(=O)n2C [Example 48, 1-[(3,4-dichlorophenyl)methyl]-3,7-dimethyl-8-[(oxan-4-yl)amino]-2,3,6,7-tetrahydro-1H-purine-2,6-dione] | 10 to 1000 |
| Cn1c(N[C@H]2CCOC2)nc2c1c(=O)n(Cc1ccc(Cl)c(Cl)c1)c(=O)n2C [Example 49, 1-[(3,4-dichlorophenyl)methyl]-3,7-dimethyl-8-{[(3S)-oxolan-3-yl]amino}-2,3,6,7-tetrahydro-1H-purine-2,6-dione] | 10 to 1000 |
